Measurements from patent US6468998B1, “Pyrrolidine compounds and medicinal utilization thereof” (Mitsubishi Pharma Corporation, priority 1998, dated 2002).

Key:
[1] = system: collateral circulation model; assay: Promotion of collateral circulation (femoral artery ligation, ADP-added platelet suspension, leg blood flow); type: in vivo, rat; settings: for Change in blood flow, control side / Change in blood flow, femoral artery ligation side: 1 hour, after ADP-added platelet suspension
Protocol: Promotion of Collateral Circulation
A collateral circulation model was prepared by rat femoral artery ligation, and a test drug was orally administered 7 days later. At 1 hour from the test drug administration, ADP-added platelet suspension (200 μM) was administered under anesthesia into the femoral artery (1 mL/kg), and changes in the leg blood flow were measured. In the same manner as above, a comparative experiment was performed using cilostazol as a control compound.
(§1) In the Table, the values are mean±standard error (n=6).

[2] = system: platelet rich plasma (PRP); assay: Platelet aggregation suppressive action (collagen + 5-HT, platelet rich plasma); type: cell-based, Japanese white rabbit; settings: Oryctolagus cuniculus, rabbit PRP, collagen + 3 μM 5-HT
Protocol: Platelet Aggregation Suppressive Action
Preparation of platelet rich plasma and a platelet aggregation test were performed according to the method of Born, G. V. R. et al. [Journal of Physiology, Vol. 168, p. 178 (1963)] as in the following. Blood was drawn from the carotid of male Japanese white rabbit with local anesthesia with xylocaine, using a syringe previously added with 3.8% sodium citrate in a 1/10 amount of the blood. This blood was centrifuged at 1000 round/min for 10 min at room temperature to give a platelet rich plasma (PRP) supernatant. This supernatant was further centrifuged at 3000 round/min for 10 min to give a platelet poor plasma (PPP) supernatant. Taking the measurement values of PRP and PPP as 0% aggregation and 100% aggregation, respectively, the platelet aggregation rate (%) was calculated. A test compound (3 μl) was added to 300 μl of PRP and the mixture was incubated at 37° C. for 5 min. Thereto were added, as aggregation inducing substances, collagen at a concentration prohibitive on aggregation by its single administration, and the final concentration of 3 μM of 5-HT, and the aggregation reaction was recorded for 7 min. The effect of the test compound was determined as percent suppression relative to the control group, using the maximum aggregation as an index. The 50% inhibition concentration (IC50) of the test compound was calculated by the nonlinear regression. In the same manner as above, a comparative experiment was conducted for the use of sarpogrelate and cilostazol, respectively as a control compound.

[3] = system: rat intermittent claudication model; assay: Effect on rat intermittent claudication model (femoral artery ligation, treadmill walking distance); type: in vivo; settings: for walking distance 8 days after administration (Δm): change vs value before ligation, mean±SE
From the text: Effect on Rat Intermittent Claudication Model
Rat was anesthetized and the right thigh was opened to expose femoral artery, which was ligated with a silk thread at a position nearest possible to the heart (upstream). In addition, a position about 1 cm from the ligation site to the periphery was ligated with a silk thread, making two ligature sites. Starting from the next day of preparation of a model to day 8 therefrom, a drug was orally administered twice a day for 8 days. However, the drug was orally administered only in the evening of the first day of administration and only in the morning of the final administration day. The walking distance was measured one day before model preparation (initial value), day 1, day 5 and day 8 with a treadmill apparatus. Using a gait test table without an angle of inclination, the conveyor advance speed was first set to 15 m/min, and the speed was increased every 5 min by 5 m/min until the animal failed walking three times, based on which the walking distance of the rat was measured. In the same manner as above, a comparative experiment was performed using sarpogrelate and cilostazol, respectively as a control compound.
In the Table, the values are mean±standard error (n=8 but n=6 only for sarpogrelate group).

[4] = Effect on heart rate and blood pressure; type: in vivo, Wistar rat; settings: for Change of blood pressure / Change of heart rate: 1 hour, no anesthesia or restriction
Protocol: Effect on Heart Rate and Blood Pressure
A catheter was placed in the femoral artery of Wistar rat, and the blood pressure and heart rate were invasively monitored under no anesthesia or restriction. At 1 hour from the oral administration of the test drug, blood pressure and heart rate were taken. In the same manner as above, a comparative experiment was performed using cilostazol as a control compound.
In the Table, the values are mean±standard error (n=4).

[5] = system: lauric acid-induced peripheral arterial obstruction model; assay: Lauric acid-induced peripheral arterial obstruction model (preventive effect); type: in vivo, Wistar rats; settings: for Lesion score 1 day later / Lesion score 3 days later / Lesion score 5 days later / Lesion score 7 days later: first dose 1 h before lauric acid, score 0 normal to 6; for peripheral circulatory disturbance (in words): prior to the lauric acid injection
Protocol: Effect on Lauric Acid-induced Peripheral Arterial Obstruction Model (Preventive Effect) Under anesthesia, lauric acid (0.75 mg/0.15 mL) was injected into the right femoral artery of Wistar rats (6-8 weeks of age). A drug was administered 1 hour before the lauric acid injection. The drug was orally administered twice a day for 8 days. In the same manner as above, a comparative experiment was performed using cilostazol as a control compound. In the Table, the values are mean±standard error (n=12).

[6] = system: lauric acid-induced peripheral arterial obstruction model; assay: Rat lauric acid-induced peripheral arterial obstruction model (therapeutic effect); type: in vivo, Wistar rats; settings: for Lesion score 3 days later / Lesion score 5 days later / Lesion score 7 days later / Lesion score 1 day later: score 0 normal to 6; for peripheral circulatory disturbance (in words): from one day after the lauric acid injection
Protocol: Effect on Rat Lauric Acid-induced Peripheral Arterial Obstruction Model (Therapeutic Effect) Under anesthesia, lauric acid (0.75 mg/0.15 mL) was injected into the right femoral artery of Wistar rats (6-8 weeks of age). A drug was administered one day after the lauric acid injection. The drug was orally administered twice a day for 7 days. In the same manner as above, a comparative experiment was performed using sarpogrelate and cilostazol as a control compound. In the Table, the values are mean±standard error (n=11).

5-HT2 receptor = target: T1, 5-HT2 receptor (Rattus norvegicus, UniProt P14842); assay: Affinity for 5-HT2 receptor (binding with 3H-ketanserine); settings: rat cerebral cortex crude synapse membrane, 37° C. 20 min
T1 construct: A crude synapse membrane was prepared from a freeze-dried rat cerebral cortex; from tissue; host or cells: rat cerebral cortex (crude synaptic membrane)
T1 sequence (P14842 whole entry): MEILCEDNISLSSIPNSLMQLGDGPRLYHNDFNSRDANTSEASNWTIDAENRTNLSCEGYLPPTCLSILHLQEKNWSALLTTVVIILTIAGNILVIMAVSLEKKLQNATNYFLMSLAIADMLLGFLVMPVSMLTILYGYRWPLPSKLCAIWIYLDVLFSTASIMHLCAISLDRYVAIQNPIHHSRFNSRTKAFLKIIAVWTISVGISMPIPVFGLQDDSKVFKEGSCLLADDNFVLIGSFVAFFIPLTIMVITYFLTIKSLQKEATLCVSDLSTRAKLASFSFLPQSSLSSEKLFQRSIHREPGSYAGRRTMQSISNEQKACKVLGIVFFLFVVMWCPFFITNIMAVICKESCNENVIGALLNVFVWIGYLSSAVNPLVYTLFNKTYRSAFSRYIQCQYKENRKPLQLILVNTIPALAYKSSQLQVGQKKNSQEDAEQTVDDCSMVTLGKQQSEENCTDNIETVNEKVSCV
Protocol: Affinity for 5-HT2 Receptor (Binding with ^3H-ketanserine)
Preparation of a crude synapse membrane and a binding test were performed according to the method of Leysen J. E. et al. [Molecular Pharmacology, Vol. 21, p. 301 (1982)]. A crude synapse membrane was prepared from a freeze-dried rat cerebral cortex, and the membrane specimen and ^3H-ketanserine were incubated in the presence of a test compound at 37° C. for 20 min. After the completion of the reaction, the reaction mixture was immediately filtered by suction on a Whatmann GF/B filter (trademark), and the radioactivity on the filter was measured on a liquid scintillation counter. The amount of non-specific binding was measured in the presence of 10 μM mianserin. The 50% inhibition concentration (IC50) of the test compound was calculated by the nonlinear regression. In the same manner as above, a comparative test was performed using sarpogrelate as a control compound.

erythrocytes = assay: Improvement effect of erythrocyte deformation (Nuclepore membrane filter method); type: in vivo, SHRSP (stroke prone spontaneously hypertensive rat); settings: SHRSP; for Volume of erythrocytes passed: 5 μm filter
Protocol: Improvement Effect of Erythrocyte Deformation
Blood was drawn under anesthesia from SHRSP (stroke prone spontaneously hypertensive rat) loaded with 1% saline for 3 weeks, and the time necessary for 0.5 mL of blood to pass through a filter (pore size 5 μm, Nuclepore) was measured by the Nuclepore membrane filter method of Reid et al., based on which the volume (mL/min) of the erythrocytes passed was calculated. The volume of the erythrocytes passed was taken as an index of erythrocyte deformation. A drug was orally administered 1 hour before drawing the blood. In the same manner as above, a comparative experiment was performed using sarpogrelate as a control compound.
as §1

[7] = control compounds, 100 mg/kg per Table 2
[8] = 100 mg/kg oral twice a day from one day after lauric acid
[9] = 10 mg/kg oral twice a day from one day after lauric acid
[10] = 30 mg/kg oral twice a day from one day after lauric acid

SMILES: O=C1CCc2cc(OCCCCc3nnnn3C3CCCCC3)ccc2N1 [Cilostazol, reference compound]
- decrease in leg blood flow caused by ADP-added platelet suspension (in words) ([1]; 100 mg/kg): suppressed a decrease in the blood flow on the ligation side only slightly
- Change in blood flow, control side ([1]; 100 mg/kg oral): −27.0 ± 5.0 %
- Change in blood flow, femoral artery ligation side ([1]; 100 mg/kg oral): −63.3 ± 2.4 %
- IC50 [2]: 1380 nM
- walking distance 8 days after administration (Δm) ([3]; 100 mg/kg oral twice a day): −149.8 ± 22.7 m
- walking distance at day 8 of ligation (in words) [3, 7]: increased the walking distance but the increase was not significant
- Change of blood pressure ([4]; 100 mg/kg oral): 1.3 ± 1.3 mmHg
- Change of heart rate ([4]; 100 mg/kg oral): 43.8 ± 6.7 beats/min
- influence on heart rate (in words) ([4]; 300 mg/kg as printed): increased the heart rate
- Lesion score 1 day later ([5]; 100 mg/kg oral twice a day): 1.8 ± 0.1
- Lesion score 3 days later ([5]; 100 mg/kg oral twice a day): 2.2 ± 0.2
- Lesion score 5 days later ([5]; 100 mg/kg oral twice a day): 1.8 ± 0.4
- Lesion score 7 days later ([5]; 100 mg/kg oral twice a day): 2.2 ± 0.5
- peripheral circulatory disturbance (in words) ([5]; 100 mg/kg): significantly reduced the peripheral circulatory disturbance
- Lesion score 3 days later [6, 8]: 1.5 ± 0.3
- Lesion score 5 days later [6, 8]: 1.4 ± 0.4
- Lesion score 7 days later [6, 8]: 1.3 ± 0.4
- peripheral circulatory disturbance (in words) ([6]; 100 mg/kg): significantly reduced the peripheral circulatory disturbance

SMILES: COc1cccc(CCc2ccccc2OCC(CN(C)C)OC(=O)CCC(=O)O)c1 (stereo not shown) [Sarpogrelate, reference compound]
- IC50 (5-HT2 receptor): 27 nM
- volume of the erythrocyte passed, % of the vehicle group (erythrocytes; 100 mg/kg): 128%
- Volume of erythrocytes passed (erythrocytes; 100 mg/kg oral 1 hour before drawing blood): 1.01 ± 0.10 mL/min
- IC50 [2]: 260 nM
- walking distance 8 days after administration (Δm) ([3]; 100 mg/kg oral twice a day): −151.3 ± 35.4 m
- walking distance at day 8 of ligation (in words) [3, 7]: increased the walking distance but the increase was not significant
- Lesion score 1 day later [6, 8]: 1.9 ± 0.2
- Lesion score 3 days later [6, 8]: 2.3 ± 0.3
- Lesion score 5 days later [6, 8]: 2.1 ± 0.5
- Lesion score 7 days later [6, 8]: 2.4 ± 0.6

SMILES: O=C(N[C@H]1CCN(CCc2ccc(F)cc2)C1)C12CC3CC(CC(C3)C1)C2 [Example 2, (S)-N-(1-(2-(4-fluorophenyl)ethyl)pyrrolidin-3-yl)-1-adamantanecarboxamide]
- IC50 (5-HT2 receptor): 0.18 nM
- decrease in leg blood flow caused by ADP-added platelet suspension (in words) ([1]; 10 mg/kg oral): suppressed the decrease in the blood flow in the legs on both sides
- Change in blood flow, control side ([1]; 10 mg/kg oral): −10.1 ± 1.4 %
- Change in blood flow, femoral artery ligation side ([1]; 10 mg/kg oral): −11.8 ± 1.2 %
- volume of the erythrocyte passed, % of the vehicle group (erythrocytes; 10 mg/kg): 133%
- Volume of erythrocytes passed (erythrocytes; 10 mg/kg oral 1 hour before drawing blood): 1.05 ± 0.13 mL/min
- volume of the erythrocyte passed, % of the vehicle group (erythrocytes; 30 mg/kg): 186%
- Volume of erythrocytes passed (erythrocytes; 30 mg/kg oral 1 hour before drawing blood): 1.47 ± 0.19 mL/min
- IC50 [2]: 1.9 nM
- walking distance 8 days after administration (Δm) ([3]; 3 mg/kg oral twice a day): −94.3 ± 36.1 m
- walking distance at day 8 of ligation (in words) ([3]; 3 mg/kg, 10 mg/kg and 30 mg/kg, b.i.d.): significantly increased
- walking distance 8 days after administration (Δm) ([3]; 10 mg/kg oral twice a day): −89.9 ± 22.2 m
- walking distance 8 days after administration (Δm) ([3]; 30 mg/kg oral twice a day): −88.6 ± 25.0 m
- influence on heart rate or blood pressure (in words) ([4]; 30 mg/kg and 100 mg/kg): did not influence the heart rate or blood pressure
- Change of blood pressure ([4]; 30 mg/kg oral): 0.0 ± 1.5 mmHg
- Change of heart rate ([4]; 30 mg/kg oral): −1.3 ± 4.7 beats/min
- Change of blood pressure ([4]; 100 mg/kg oral): −2.8 ± 0.8 mmHg
- Change of heart rate ([4]; 100 mg/kg oral): −4.5 ± 5.2 beats/min
- peripheral circulatory disturbance (in words) ([5]; 10 mg/kg and 30 mg/kg): significantly reduced the peripheral circulatory disturbance
- Lesion score 1 day later ([5]; 10 mg/kg oral twice a day): 1.8 ± 0.1
- Lesion score 3 days later ([5]; 10 mg/kg oral twice a day): 2.1 ± 0.2
- Lesion score 5 days later ([5]; 10 mg/kg oral twice a day): 1.8 ± 0.3
- Lesion score 7 days later ([5]; 10 mg/kg oral twice a day): 1.9 ± 0.5
- Lesion score 1 day later ([5]; 30 mg/kg oral twice a day): 1.8 ± 0.2
- Lesion score 3 days later ([5]; 30 mg/kg oral twice a day): 2.0 ± 0.3
- Lesion score 5 days later ([5]; 30 mg/kg oral twice a day): 1.5 ± 0.4
- Lesion score 7 days later ([5]; 30 mg/kg oral twice a day): 1.2 ± 0.5
- Lesion score 1 day later [6, 9]: 2.0 ± 0.0
- Lesion score 3 days later [6, 9]: 2.2 ± 0.1
- Lesion score 5 days later [6, 9]: 2.2 ± 0.4
- Lesion score 7 days later [6, 9]: 2.2 ± 0.4
- Lesion score 1 day later [6, 10]: 1.8 ± 0.1
- Lesion score 3 days later [6, 10]: 1.7 ± 0.2
- Lesion score 5 days later [6, 10]: 1.3 ± 0.3
- Lesion score 7 days later [6, 10]: 0.9 ± 0.5
- peripheral circulatory disturbance (in words) ([6]; 30 mg/kg): significantly reduced the peripheral circulatory disturbance
